From patent US20170368082A1, “FORMULATIONS OF BRINCIDOFOVIR” (priority 2016, published 2017)
Like-named read-outs stand apart in the source and are kept apart here.

What was measured:
[1] = Clinical infusion system compatibility; assay type: physicochemical
Method: The testing procedure can be summarized as follows: • 1. […] The tested infusion system was attached to the infusion bag and manually filled with solution from the infusion bag. Approximately 1 mL (triplicates) of the testing solution was collected as an end-of-line sample for analysis (t0, eol). • 4. The testing infusion system was shut off, and stored at ambient conditions until the next time point. […] B Braun, Rate Flow® regulator IV set). […] The infusion systems were then attached to the infusion bag and manually filled with solution from the infusion bag. Aliquots were collected as an end-of-line sample for analysis (t0, eol). The IV lines were closed between time points with the infusate resting within the infusion system and stored at ambient temperature. At testing time points, approximately 17 mL (approx. volume of the IV system) of infusate solution were drained, which led to a replacement of the solution in the IV system from the bag reservoir. Following this replacement, another end-of-line sample was collected for the assessments (t10 min, eol, t3 h, eol, and t6 h, eol). The samples were evaluated for appearance, pH, and brincidofovir recovery.

[2] = 28-day study toxicokinetics of brincidofovir and CDV in plasma; assay type: in vivo, Sprague-Dawley CD rats; settings: plasma brincidofovir; for AUC(0-t) / Cmax: iv
Method: Blood samples were obtained for the determination of plasma concentrations of brincidofovir and the brincidofovir metabolite, cidofovir.
Approximately 0.40 mL of whole blood was obtained via the tail vein from each animal at each time point. Animals were not fasted prior to blood collection. Blood was collected into tubes containing K2EDTA anticoagulant and placed on wet ice in an upright position. Plasma was separated by centrifugation (for 10 minutes at approximately 2000 g, at approximately 2-8° C.). Approximately 0.150 mL of plasma was transferred into a single cryotube appropriately labeled as to study number, animal number, time point, date of sampling and sample type. Remaining plasma was transferred into a second cryotube and retained as a backup sample. Plasma was obtained and frozen at approximately −80±10° C. within approximately 2 hours after collection of each blood sample until analysis. Animals were euthanized (CO2 inhalation) after the final blood collection.
Bioanalytical samples were analyzed using a validated liquid chromatographic-triple quadruple mass spectrometric (LC-MS/MS) assay at Pyxant Labs.
Upon receipt of the plasma concentration data, noncompartmental toxicokinetic analysis was performed by Nuventra, Inc. Durham, N.C.

[3] = B. Braun, 0.1 mg/mL, t10 min, eol
[4] = B. Braun, 1.0 mg/mL, t10 min, eol
[5] = Baxter, 0.1 mg/mL, t10 min, eol
[6] = Baxter, 1.0 mg/mL, t10 min, eol
[7] = both sexes, Sprague-Dawley CD, rat, in vivo, 4 mg/kg, Day 1, 4 mg/kg, combined male and female, Mean
[8] = both sexes, Sprague-Dawley CD, rat, in vivo, 4 mg/kg, Day 1, 4 mg/kg, combined male and female, Median
[9] = both sexes, Sprague-Dawley CD, rat, in vivo, 15 mg/kg, Day 1, 15 mg/kg, combined male and female, Mean
[10] = both sexes, Sprague-Dawley CD, rat, in vivo, 15 mg/kg, Day 1, 15 mg/kg, combined male and female, Median
[11] = Day 29, 1 mg/kg, combined male and female rats, mean
[12] = Day 29, 4 mg/kg, combined male and female rats, mean
[13] = Day 29, 15 mg/kg, combined male and female rats, mean
[14] = Day 1, 1 mg/kg, combined male and female, Median
[15] = Day 1, 4 mg/kg, combined male and female, Mean
[16] = Day 1, 4 mg/kg, combined male and female, Median
[17] = Day 1, 15 mg/kg, combined male and female, Mean
[18] = Day 1, 15 mg/kg, combined male and female, Median

SMILES: CCCCCCCCCCCCCCCCOCCCOP(=O)(O)CO[C@H](CO)Cn1ccc(N)nc1=O [Brincidofovir]
- Appearance ([1]; B. Braun, 0.1 mg/mL, t0, bag): Clear, colorless
- Measured pH ([1]; B. Braun, 0.1 mg/mL, t0, bag): 7.8
- Observed c(BCV) ([1]; B. Braun, 0.1 mg/mL, t0, bag): 0.091 mg/mL
- Appearance ([1]; B. Braun, 0.1 mg/mL, t0, eol): Clear, colorless
- Measured pH ([1]; B. Braun, 0.1 mg/mL, t0, eol): 7.7
- Observed c(BCV) ([1]; B. Braun, 0.1 mg/mL, t0, eol): 0.086 mg/mL
- Appearance [1, 3]: Clear, colorless
- Measured pH [1, 3]: 7.7
- Observed c(BCV) [1, 3]: 0.091 mg/mL
- Appearance ([1]; B. Braun, 0.1 mg/mL, t3 h, eol): Clear, colorless
- Measured pH ([1]; B. Braun, 0.1 mg/mL, t3 h, eol): 7.7
- Observed c(BCV) ([1]; B. Braun, 0.1 mg/mL, t3 h, eol): 0.090 mg/mL
- Appearance ([1]; B. Braun, 0.1 mg/mL, t6 h, eol): Clear, colorless
- Measured pH ([1]; B. Braun, 0.1 mg/mL, t6 h, eol): 7.7
- Observed c(BCV) ([1]; B. Braun, 0.1 mg/mL, t6 h, eol): 0.091 mg/mL
- Observed c(BCV) ([1]; B. Braun, 0.1 mg/mL, t−24 h, bag): 0.090 mg/mL
- Appearance ([1]; B. Braun, 1.0 mg/mL, t0, bag): Clear, colorless
- Measured pH ([1]; B. Braun, 1.0 mg/mL, t0, bag): 8.1
- Observed c(BCV) ([1]; B. Braun, 1.0 mg/mL, t0, bag): 0.86 mg/mL
- Appearance ([1]; B. Braun, 1.0 mg/mL, t0, eol): Clear, colorless
- Measured pH ([1]; B. Braun, 1.0 mg/mL, t0, eol): 8.1
- Observed c(BCV) ([1]; B. Braun, 1.0 mg/mL, t0, eol): 0.86 mg/mL
- Appearance [1, 4]: Clear, colorless
- Measured pH [1, 4]: 8.1
- Observed c(BCV) [1, 4]: 0.86 mg/mL
- Appearance ([1]; B. Braun, 1.0 mg/mL, t3 h, eol): Clear, colorless
- Measured pH ([1]; B. Braun, 1.0 mg/mL, t3 h, eol): 8.1
- Observed c(BCV) ([1]; B. Braun, 1.0 mg/mL, t3 h, eol): 0.86 mg/mL
- Appearance ([1]; B. Braun, 1.0 mg/mL, t6 h, eol): Clear, colorless
- Measured pH ([1]; B. Braun, 1.0 mg/mL, t6 h, eol): 8.1
- Observed c(BCV) ([1]; B. Braun, 1.0 mg/mL, t6 h, eol): 0.86 mg/mL
- Observed c(BCV) ([1]; B. Braun, 1.0 mg/mL, t−24 h, bag): 0.86 mg/mL
- Appearance ([1]; Baxter, 0.1 mg/mL, t0, bag): Clear, colorless
- Measured pH ([1]; Baxter, 0.1 mg/mL, t0, bag): 7.7
- Observed c(BCV) ([1]; Baxter, 0.1 mg/mL, t0, bag): 0.091 mg/mL
- Appearance ([1]; Baxter, 0.1 mg/mL, t0, eol): Clear, colorless
- Measured pH ([1]; Baxter, 0.1 mg/mL, t0, eol): 7.7
- Observed c(BCV) ([1]; Baxter, 0.1 mg/mL, t0, eol): 0.088 mg/mL
- Appearance [1, 5]: Clear, colorless
- Measured pH [1, 5]: 7.7
- Observed c(BCV) [1, 5]: 0.092 mg/mL
- Appearance ([1]; Baxter, 0.1 mg/mL, t3 h, eol): Clear, colorless
- Measured pH ([1]; Baxter, 0.1 mg/mL, t3 h, eol): 7.7
- Observed c(BCV) ([1]; Baxter, 0.1 mg/mL, t3 h, eol): 0.091 mg/mL
- Appearance ([1]; Baxter, 0.1 mg/mL, t6 h, eol): Clear, colorless
- Measured pH ([1]; Baxter, 0.1 mg/mL, t6 h, eol): 7.7
- Observed c(BCV) ([1]; Baxter, 0.1 mg/mL, t6 h, eol): 0.092 mg/mL
- Observed c(BCV) ([1]; Baxter, 0.1 mg/mL, t−24 h, bag): 0.090 mg/mL
- Appearance ([1]; Baxter, 1.0 mg/mL, t0, bag): Clear, colorless
- Measured pH ([1]; Baxter, 1.0 mg/mL, t0, bag): 8.1
- Observed c(BCV) ([1]; Baxter, 1.0 mg/mL, t0, bag): 0.86 mg/mL
- Appearance ([1]; Baxter, 1.0 mg/mL, t0, eol): Clear, colorless
- Measured pH ([1]; Baxter, 1.0 mg/mL, t0, eol): 8.1
- Observed c(BCV) ([1]; Baxter, 1.0 mg/mL, t0, eol): 0.85 mg/mL
- Appearance [1, 6]: Clear, colorless
- Measured pH [1, 6]: 8.1
- Observed c(BCV) [1, 6]: 0.86 mg/mL
- Appearance ([1]; Baxter, 1.0 mg/mL, t3 h, eol): Clear, colorless
- Measured pH ([1]; Baxter, 1.0 mg/mL, t3 h, eol): 8.1
- Observed c(BCV) ([1]; Baxter, 1.0 mg/mL, t3 h, eol): 0.86 mg/mL
- Appearance ([1]; Baxter, 1.0 mg/mL, t6 h, eol): Clear, colorless
- Measured pH ([1]; Baxter, 1.0 mg/mL, t6 h, eol): 8.1
- Observed c(BCV) ([1]; Baxter, 1.0 mg/mL, t6 h, eol): 0.86 mg/mL
- Observed c(BCV) ([1]; Baxter, 1.0 mg/mL, t−24 h, bag): 0.85 mg/mL
- concentration at 2 h ([2]; both sexes, Sprague-Dawley CD, rat, in vivo, 1 mg/kg, Day 1, 1 mg/kg, combined male and female, Mean, read-out: Clast): 209 ng/mL
- concentration at 8 hr ([2]; both sexes, Sprague-Dawley CD, rat, in vivo, 4 mg/kg, Day 29, 4 mg/kg, combined male and female rats, mean, read-out: Clast): 2.06 ng/mL
- concentration at 8 h ([2]; both sexes, Sprague-Dawley CD, rat, in vivo, 4 mg/kg, Day 1, 4 mg/kg, combined male and female, Mean, read-out: Clast): 2.2 ng/mL
- concentration at 8 h ([2]; both sexes, Sprague-Dawley CD, rat, in vivo, 4 mg/kg, Day 1, 4 mg/kg, combined male and female, Median, read-out: Clast): 2.31 ng/mL
- concentration at 8 hr ([2]; both sexes, Sprague-Dawley CD, rat, in vivo, 15 mg/kg, Day 29, 15 mg/kg, combined male and female rats, mean, read-out: Clast): 10.9 ng/mL
- concentration at 8 h ([2]; both sexes, Sprague-Dawley CD, rat, in vivo, 15 mg/kg, Day 1, 15 mg/kg, combined male and female, Mean, read-out: Clast): 9.68 ng/mL
- concentration at 8 h ([2]; both sexes, Sprague-Dawley CD, rat, in vivo, 15 mg/kg, Day 1, 15 mg/kg, combined male and female, Median, read-out: Clast): 10.3 ng/mL
- AUC(0-t) ([2]; both sexes, Sprague-Dawley CD, rat, in vivo, 1 mg/kg, Day 29, 1 mg/kg, combined male and female rats, mean, calculated using only 2 quantifiable data points): 410 ng·h/mL
- Cmax ([2]; both sexes, Sprague-Dawley CD, rat, in vivo, 1 mg/kg, Day 1, 1 mg/kg, combined male and female, Mean): 219 ng/mL
- AUC(0-t) ([2]; both sexes, Sprague-Dawley CD, rat, in vivo, 1 mg/kg, Day 1, 1 mg/kg, combined male and female, Mean, only 2 quantifiable data points): 319 ng·h/mL
- Cmax ([2]; both sexes, Sprague-Dawley CD, rat, in vivo, 1 mg/kg, Day 1, 1 mg/kg, combined male and female, Median): 210 ng/mL
- AUC(0-t) ([2]; both sexes, Sprague-Dawley CD, rat, in vivo, 1 mg/kg, Day 1, 1 mg/kg, combined male and female, Median, only 2 quantifiable data points): 305 ng·h/mL
- AUC(0-t) ([2]; both sexes, Sprague-Dawley CD, rat, in vivo, 4 mg/kg, Day 29, 4 mg/kg, combined male and female rats, mean): 2760 ng·h/mL
- AUC(0-t) [2, 7]: 2220 ng·h/mL
- Cmax [2, 7]: 1010 ng/mL
- AUC(0-t) [2, 8]: 2320 ng·h/mL
- Cmax [2, 8]: 1000 ng/mL
- AUC(0-t) ([2]; both sexes, Sprague-Dawley CD, rat, in vivo, 15 mg/kg, Day 29, 15 mg/kg, combined male and female rats, mean): 9890 ng·h/mL
- AUC(0-t) [2, 9]: 8820 ng·h/mL
- Cmax [2, 9]: 3800 ng/mL
- AUC(0-t) [2, 10]: 8780 ng·h/mL
- Cmax [2, 10]: 3760 ng/mL
- AUClast/Dose [2, 11]: 410 (hr*ng/mL)/(mg/kg)
- Cmax/Dose [2, 11]: 298 kg·ng/mL/mg
- Tlast ([2]; Day 29, 1 mg/kg, combined male and female rats, median): 2.00 h
- AUClast/Dose [2, 12]: 690 (hr*ng/mL)/(mg/kg)
- Cmax/Dose [2, 12]: 301 kg·ng/mL/mg
- Tlast ([2]; Day 29, 4 mg/kg, combined male and female rats, median): 8.00 h
- AUClast/Dose [2, 13]: 660 (hr*ng/mL)/(mg/kg)
- Cmax/Dose [2, 13]: 300 kg·ng/mL/mg
- Tlast ([2]; Day 29, 15 mg/kg, combined male and female rats, median): 8.00 h
- Cmax/Dose ([2]; Day 1, 1 mg/kg, combined male and female, Mean): 219 kg·ng/mL/mg
- AUClast/Dose ([2]; Day 1, 1 mg/kg, combined male and female, Mean, only 2 quantifiable data points): 319 (hr*ng/mL)/(mg/kg)
- Clast [2, 14]: 206 ng/mL
- Cmax/Dose [2, 14]: 210 kg·ng/mL/mg
- Tlast [2, 14]: 2.00 h
- AUClast/Dose ([2]; Day 1, 1 mg/kg, combined male and female, Median, only 2 quantifiable data points): 305 (hr*ng/mL)/(mg/kg)
- AUClast/Dose [2, 15]: 554 (hr*ng/mL)/(mg/kg)
- Cmax/Dose [2, 15]: 252 kg·ng/mL/mg
- AUClast/Dose [2, 16]: 579 (hr*ng/mL)/(mg/kg)
- Cmax/Dose [2, 16]: 250 kg·ng/mL/mg
- Tlast [2, 16]: 8.00 h
- AUClast/Dose [2, 17]: 588 (hr*ng/mL)/(mg/kg)
- Cmax/Dose [2, 17]: 254 kg·ng/mL/mg
- AUClast/Dose [2, 18]: 585 (hr*ng/mL)/(mg/kg)
- Cmax/Dose [2, 18]: 251 kg·ng/mL/mg
- Tlast [2, 18]: 8.00 h
